Source: paper PMC8116058, “De novo macrocyclic peptides dissect energy coupling of a heterodimeric ABC transporter by multimode allosteric inhibition” (eLife, 2021)
Positions of bridges follow the written chain, without caps; N, C: chain ends. Non-standard residues stand in square brackets, D forms with d. Residues, ends and D or L forms follow the SMILES beside them. *: point of attachment. 5FAM = O=C1OC2(c3ccc(O)cc3Oc3cc(O)ccc32)c2ccc(C(=O)*)cc21; βAla = NCCC(=O)O

Tests used:
[1] = tested on: TmrAB in liposomes; assay: ATP hydrolysis assay; type: biochemical, Thermus thermophilus; settings: TmrAB in liposomes 100 nM; ATP 2 mM; CP^F 1 µM; 10 min 45°C; without CP 1.49, autohydrolysis 0.62
Text: In order to investigate the functional impact of CPs, we examined the effect of the CPs on ATP hydrolysis and substrate transport of TmrAB (Figure 3A). We reconstituted TmrAB in liposomes and first assayed the ATPase activity. […] We next set out to investigate peptide transport by TmrAB using a filter-based transport assay. To investigate whether CPs are recognized as substrates by TmrAB, we added fluorescein-labeled CP^Fs and examined ATP-dependent translocation. In contrast to the linear substrate peptide C4F, none of the CP^Fs were transported by TmrAB (Figure 3C). Next, we examined ATP-dependent transport of C4F peptides in the presence and absence of the different CPs.
Figure 3. CP^Fs are potent inhibitors of ATP turnover and substrate transport. (A) Experimental scheme of ATP hydrolysis and peptide transport by TmrAB. (B) CP^Fs inhibit ATP hydrolysis. TmrAB in liposomes (100 nM) was incubated with ATP (2 mM, traced with [γ^32P]-ATP), and MgCl2 (5 mM) in the presence and absence of CP^Fs (1 µM) for 10 min at 45°C. Autohydrolysis was determined in the absence of TmrAB, and background turnover was conducted in the presence of EDTA (10 mM). Release of [γ^32P] was quantified by thin layer chromatography. (C) CP^Fs are not transported by TmrAB. TmrAB (0.4 µM) reconstituted in liposomes was incubated with C4F peptide (3 µM) or CP^Fs (1 µM) in the presence of ATP/ADP (3 mM) and MgCl2 (5 mM) for 5 min at 45°C. Since CP^Fs were dissolved in maximal 0.5% (v/v) of DMSO, C4F plus 0.5% DMSO served as control. Proteoliposomes were washed on filter plates, and transported peptides were quantified at λex/em = 485/520 nm. (D) Inhibition of substrate translocation. TmrAB in liposomes (0.4 µM) were incubated with C4F peptide (3 µM), ATP/ADP (3 mM), and MgCl2 (5 mM) in the presence and absence of CP^Fs (1 µM) for 15 min at 45°C. Transported peptides were quantified as described in (C). In (B–C), mean values ± SD (n = 3) are shown. Figure 3—source data 1. Source data for Figure 3.
TmrAB reconstituted in liposomes (100 nM) were incubated with ATP (2 mM) traced with [γ^32P]-ATP (Hartmann Analytic), ouabain (1 mM), NaN3 (5 mM), EGTA (50 µM), MgCl2 (3 mM), and CP^Fs (1 µM) for 10 min at 45°C. Autohydrolysis and background hydrolysis were examined in the absence of proteoliposomes or the presence of EDTA (10 mM). Samples were spotted onto polyethyleneimine cellulose plates (Merck Millipore), and thin-layer chromatography was performed with 0.8 M LiCl-acetic acid pH 3.2. Plates were developed overnight on Exposure Cassette-K (Bio-Rad) and evaluated on Personal Molecular Imager System (Bio-Rad). Data were recorded in triplicates and the mean values ± SD (n = 3) are shown.

[2] = tested on: wild-type TmrAB in liposomes; assay: Single-liposome flow cytometry transport assay; type: biochemical, Thermus thermophilus; settings: for Peptides/liposome, time course: corrected by ADP background; for Peptides/liposome, two consecutive transport cycles: ADP background corrected
Procedure: To investigate whether an IF-to-OF transition and conformational arrest by CP13^F or CP14^F can still result in a productive substrate translocation, we followed peptide transport by wild-type TmrAB by single liposome-based flow cytometry (Figure 6A). […] CPs block multiple-turnover transport monitored by quantitative flow cytometry. (A) Single turnover by IF-to-OF switch monitored by single-liposome flow cytometry. […] Transport reactions were stopped by the addition of EDTA (10 mM). 100,000 proteoliposomes were analyzed by flow cytometry monitoring fluorescein and ATTO655 intensities. […] (C, D) Slowdown of multiple-turnover substrate transport. […] Transported peptides per liposomes were evaluated and corrected by ADP background levels as described in (B). Transport kinetics were fitted monoexponentially. […] (E) Two consecutive transport cycles. […] Transported peptides per liposome were evaluated as described in (B) and corrected by background levels in the presence of ADP. […] Figure 6-source data 1. Source data for Figure 6. Figure 6-figure supplement 1. Linear regression of quantitative flow cytometry analysis. (A) Gating strategy. Liposomes were selected according to side and forward scatter areas. Single liposomes were gated based on the height of forward scatter correlated to the area of forward scatter. […] Detergent was removed, and liposomes were extensively washed by centrifugation. […] Equal concentrations of fluorescein served as loading control (right). (C) Linear regression. […] Mean values ± SD (n = 3) are shown. Figure 6-figure supplement 1-source data 1. Source Data for Figure 6-figure supplement 1. [drawing 5] […] To confirm the conformational arrest of wild-type TmrAB by CP13^F and the slow turnover in the presence of CP14^F, we examined two successive cycles of conformational transitions by flow cytometry. […] Both steps were repeated to yield two consecutive cycles of conformational transitions. […] Taken together, the macrocyclic peptides CP13 and CP14 stabilize a pre-hydrolysis state, thus allowing a single-turnover translocation along the IF-to-OF switch. […] Transport reactions were stopped by adding EDTA (10 mM). […] For regression analysis, liposomes were loaded with increasing amounts of peptides to convert the fluorescence intensities into the number of peptides per liposome ([Stefan et al., 2020]). […] Equal amounts of carboxyfluorescein (Sigma-Aldrich) served as loading control. Detergent was removed by adding SM-2 Bio-beads (Bio-Rad) as detailed above. Liposomes were harvested for 30 min at 270,000 g and washed three times by centrifugation. Generally, 20,000-100,000 proteoliposomes were selected according to sideward and forward scatter areas. Single events were selected based on the height of forward scatter plotted against the area of forward scatter. […] Data represent mean ± SD from three experiments.

CC[C@H](C)[C@@H]1NC(=O)[C@H](Cc2c[nH]c3ccccc23)NC(=O)[C@H](CC(N)=O)NC(=O)[C@H](C)NC(=O)[C@H](CO)NC(=O)[C@@H]2CCCN2C(=O)[C@H](CC(=O)O)NC(=O)[C@@H](Cc2ccc(O)cc2)NC(=O)CSC[C@@H](C(=O)NCC(=O)N[C@@H](CO)C(=O)NCCC(=O)NCCC(=O)N[C@@H](CCCNC(=N)N)C(=O)N[C@@H](CCCCNC(=O)c2ccc3c(c2)C(=O)OC32c3ccc(O)cc3Oc3cc(O)ccc32)C(N)=O)NC(=O)[C@H]([C@@H](C)O)NC(=O)[C@H](CC(C)C)NC(=O)[C@H](CC(C)C)NC(=O)[C@H](C(C)C)NC(=O)[C@H](CC(C)C)NC1=O [CP13] ({CH2CO}-[dY]DPSANWILVLLTCGS[βAla][βAla]RK(5FAM)-NH2; thioether N-14; C-terminus assumed)
ATP hydrolysis [1]: 0.39 mmol Pi (g*min)^-1 | Peptides/liposome, time course ([2]; 1 min at 45°C, CP^F 1 µM, C4^ATTO655 1 µM): -0.42 Peptides/liposome | Mean fluorescence intensity * 10^3, time course ([2]; 1 min at 45°C, CP^F 1 µM, C4^ATTO655 1 µM, without CP 2.29): -0.03 * 10^3 | Peptides/liposome, time course ([2]; 3 min at 45°C, CP^F 1 µM, C4^ATTO655 1 µM): 2.53 Peptides/liposome | Mean fluorescence intensity * 10^3, time course ([2]; 3 min at 45°C, CP^F 1 µM, C4^ATTO655 1 µM, without CP 10.49): 0.17 * 10^3 | Peptide transport in two successive IF-to-OF cycles ([2]; 5 min 45°C / 60 min 4°C, repeated): peptide transport was exclusively observed along the first IF-to-OF switch | Peptides/liposome, time course ([2]; 5 min at 45°C, CP^F 1 µM, C4^ATTO655 1 µM): 3.33 Peptides/liposome | Mean fluorescence intensity * 10^3, time course ([2]; 5 min at 45°C, CP^F 1 µM, C4^ATTO655 1 µM, without CP 18.11): 0.23 * 10^3 | Peptides/liposome, time course ([2]; 10 min at 45°C, CP^F 1 µM, C4^ATTO655 1 µM): 5.08 Peptides/liposome | Mean fluorescence intensity * 10^3, time course ([2]; 10 min at 45°C, CP^F 1 µM, C4^ATTO655 1 µM, without CP 30.27): 0.35 * 10^3 | Peptides/liposome, time course ([2]; 20 min at 45°C, CP^F 1 µM, C4^ATTO655 1 µM): 4.95 Peptides/liposome | Mean fluorescence intensity * 10^3, time course ([2]; 20 min at 45°C, CP^F 1 µM, C4^ATTO655 1 µM, without CP 40.72): 0.34 * 10^3 | Peptides/liposome, time course ([2]; 40 min at 45°C, CP^F 1 µM, C4^ATTO655 1 µM): 5.22 Peptides/liposome | Mean fluorescence intensity * 10^3, time course ([2]; 40 min at 45°C, CP^F 1 µM, C4^ATTO655 1 µM, without CP 51.44): 0.36 * 10^3 | C4^ATTO655 peptides per liposome transported along a single IF-to-OF switch ([2]; CP^F 1 µM, 5 min 45°C, ~30 transport-competent TmrAB per liposome): approx. 10 peptides per liposome | Transported C4^ATTO655, Peptides/liposome ([2]; TmrAB 0.4 µM, C4^ATTO655 1 µM, ATP 3 mM, CP^F 1 µM, 5 min 45°C, ATP without CP 84.57, ADP 3.52): 13.69 Peptides/liposome | Peptide transport rate compared to control without CP^Fs ([2]; period of 40 min at 45°C): drastically reduced the peptide transport rate | Turnover of wild-type TmrAB over long-term incubation ([2]; period of 40 min at 45°C): a single turnover driving peptide transport was observed | Peptides/liposome, two consecutive transport cycles ([2]; time 0 min): 0.00 Peptides/liposome | Peptides/liposome, two consecutive transport cycles ([2]; time 5 min (after first 5 min at 45°C)): 9.32 Peptides/liposome | Peptides/liposome, two consecutive transport cycles ([2]; time 65 min (after 60 min at 4°C)): 10.24 Peptides/liposome | Peptides/liposome, two consecutive transport cycles ([2]; time 70 min (after second 5 min at 45°C)): 10.66 Peptides/liposome | Peptides/liposome, two consecutive transport cycles ([2]; time 130 min (after second 60 min at 4°C)): 11.66 Peptides/liposome | Period of conformational arrest of wild-type TmrAB ([2]; two consecutive cycles): 2 h
